In patent publication US9630939B2, “Derivative of homoserine lactone, and preparation method and use thereof” (priority 2013, dated 2017):

Experiments:
C. violaceum CV026 [1] = assay: Preliminary screening of bacterial quorum sensing agonistic / inhibitory activity on LB plate (purple stain / white circle); assay type: cell-based; conditions: for Regulatory activity (bacterial quorum sensing): 1 μl of 0.065M compound spotted on LB plate with C. violaceum CV026, without (agonistic) or with inducer C6-HSL (inhibitory), 30° C., 16-18 h
Description: 1.1 Preparation work: different compounds to be tested (Compounds 1-29 prepared in Example 1-29 and intermediates 1-3) were weighted and then were dissolved in 200 μl DMSO (dimethyl sulfoxide) to prepare a solution at a concentration of 0.065M. 5.0 mg inducer, N-hexanoyl homoserine lactone (C6-HSL, purchased from Sigma Company), was weighted and was dissolved in 200 μl DMSO (at a concentration of 0.125M), and the compounds and the inducer were stored at 4[…] for further use. C. violaceum CV026 (donated by Professor McLean J C from Texas State University) in LB culture medium (LB culture medium consisting of 1% (percentage by mass) tryptone, 0.5% (percentage by mass) yeast extract, 1% (percentage by mass) NaCl and water) was cultured under shaking in a shaker at 30 °C, 200 rpm to get the culture medium for further use.
1.2 Method for preliminary screening of compounds having agonistic activity: 400 μl C. violaceum CV026 (at a bacterial concentration of 1×10^8/ml) was added to 5 ml melted semi-solid LB culture medium, and was mixed well; the mixed culture medium was poured into a solid LB plate; when the mixed culture medium was solidified on the plate, lattice was made thereon; 1 μl of the dissolved compounds to be tested (Compounds 1-29 in Examples 1-29, at a concentration of 0.065M) was spotted on the plate; when the compounds on the plate was dried in air, the plate was put in a 30° C. oven upside down and was cultured for a period of 16-18 h. If the compound to be tested has an agonistic effect on C. violaceum CV026 on the LB plate, purple stain will be induced on the LB plate. The agonistic activity of a compound is determined depending on whether purple stain is induced for C. violaceum CV026 on LB plate as well as the purple depth.
1.3 Method for preliminary screening of compounds having inhibitory activity: the inducer C6—HSL was diluted gradiently to 1000 times by means of 2-fold dilution; 15 μl diluted inducer and 400 μl C. violaceum CV026 in exponential phase (at a bacterial concentration of 1×10^8/ml) were mixed well and then were added to a 5 ml melted semi-solid LB culture medium; the mixture of inducer, C. violaceum, and semi-solid LB was poured onto a solid LB plate; when the mixture was solidified on the plate, lattice was made thereon; 1 μl of the dissolved compounds to be tested (Compounds 1-29 prepared in Example 1-29 and intermediates 1-3, at a concentration of 0.065M) was spotted on the plate; when the compounds on the plate were dried in air, the plate was put in a 30° C. oven upside down and was cultured for a period of 16-18 h. […] The inhibitory activity of a compound is preliminary determined depending on the size of the white circle appeared after C. violaceum CV026 was inhibited on LB plate.

C. violaceum CV026 [2] = assay: Measurement of IC50 of compounds having an inhibitory effect on C. violaceum quorum sensing (purple pigment absorbance at 585 nm); assay type: cell-based; conditions: Chromobacterium violaceum, read-out: IC50 of compounds having bacterial quorum sensing inhibitory activity
Description: 2.1 The wells of a 12-well plate were marked as initial concentration, 2, 4, 8, 16, 32, 64, 128, 256, DMSO group, and a blank control group from left to right and from up to bottom, respectively.
2.2 The monoclonal C. violaceum CV026 grew on LB solid plate was cultured to exponational phase in a 5 ml fresh LB liquid culture medium, 50 μl was then taken for seeding in a 5 ml LB culture medium, and was cultured until the optical density OD value was about 1.0 at 585 nm; the culture was then mixed well with LB culture medium at a ratio of 1:9 by volume (with OD of about 0.15), and was added to a 12-well plate in an amount of 2 ml/well.
2.3 The compounds preliminarily screened to have quorum sensing inhibitory activity were dissolved respectively in DMSO (at a concentration of 0.065M), and then 10 μl was taken into 10 μl DMSO solution to achieve the purpose of 2-fold dilution, and so on. Each compound was gradiently diluted to a highest fold of 256 (gradient dilution of 2, 4, 8, 16, 32, 64, 128, 256 fold).
2.4 To each well, 15 μl 1000-fold diluted inducer C6—HSL (initial concentration of 0.125M) and 8 μl compound solution at each diluted gradient was added; to DMSO control group, 8 μl DMSO was added; to a blank control group, 8 μl LB culture medium was added. Finally, it was ensured that 2 ml culture in each of the 12-well plate was mixed well.
2.5 The 12-well plate was placed in a 30° C. shaker at 130 rpm and was cultured for 10-12 h.
2.6 After the culture was finished, 1 ml culture was taken from each well and was put in a 1.5 ml EP tube and then was centrifugated at 12000 rpm for 10 mins. The supernatant of the culture was sucked out, and 500 μl DMSO was added to each EP tube to dissolve the purple pigment in the culture. After the pigment was completely dissolved, centrifugation was performed at 12000 rpm for 10 mins. 200 μl supernatant pigment was put in a 96-well culture plate, and was measured for absorbance value at 585 nm by a Microplate Reader, […] the absorbance value and the corresponding concentration were plotted to get the IC50 value.

| Structure (SMILES) | melting point | Regulatory activity (bacterial quorum sensing) (C. violaceum CV026 [1]) | IC50 (C. violaceum CV026 [2]) | inhibitory or agonizing effect on bacterial quorum sensing (in words) (C. violaceum CV026 [1]) |
| --- | --- | --- | --- | --- |
| CCCc1ccc(C(=O)Nc2ccc(S(=O)(=O)N[C@H]3CCOC3=O)cc2)cc1 | 247 to 249 °C |  |  |  |
| N#Cc1ccc(C(=O)Nc2ccc(S(=O)(=O)N[C@H]3CCOC3=O)cc2)cc1 | 230 to 231 °C |  |  |  |
| O=C(Cc1ccccc1)Nc1ccc(S(=O)(=O)N[C@H]2CCOC2=O)cc1 | 157 to 158 °C |  |  |  |
| CCOc1ccc(C(=O)Nc2ccc(S(=O)(=O)N[C@H]3CCOC3=O)cc2)cc1 | 256 to 258 °C |  |  |  |
| O=C(Nc1ccc(S(=O)(=O)N[C@H]2CCOC2=O)cc1)c1ccc([N+](=O)[O-])cc1 | 257 to 258 °C |  |  |  |
| CCCCCCCCC(=O)Nc1ccc(S(=O)(=O)N[C@H]2CCOC2=O)cc1 | 150 to 152 °C |  |  |  |
| CCC(=O)Nc1ccc(S(=O)(=O)N[C@H]2CCOC2=O)cc1 [Compound 1, (S)-N-(4-(N-(2-oxotetrahydrofuran-3-yl)sulfamoyl)phenyl) propanamide] | 179 to 181 °C | − |  |  |
| CCCC(=O)Nc1ccc(S(=O)(=O)N[C@H]2CCOC2=O)cc1 [Compound 2, (S)-N-(4-(N-(2-oxotetrahydrofuran-3-yl)sulfamoyl)phenyl)butyrylamide] | 180 to 182 °C | − |  |  |
| CCCCC(=O)Nc1ccc(S(=O)(=O)N[C@H]2CCOC2=O)cc1 [Compound 3, (S)-N-(4-(N-(2-oxotetrahydrofuran-3-yl)sulfamoyl)phenyl)pentanamide] | 174 to 176 °C | − |  |  |
| CCCCCC(=O)Nc1ccc(S(=O)(=O)N[C@H]2CCOC2=O)cc1 [Compound 4, (S)-N-(4-(N-(2-oxotetrahydrofuran-3-yl)sulfamoyl)phenyl)hexanamide] | 142 to 143 °C | − | 29 ± 2.41 µM |  |
| CCCCCCC(=O)Nc1ccc(S(=O)(=O)N[C@H]2CCOC2=O)cc1 [Compound 5, (S)-N-(4-(N-(2-oxotetrahydrofuran-3-yl)sulfamoyl)phenyl)heptamide] | 143 to 144 °C | − |  |  |
| CCCCCCCC(=O)Nc1ccc(S(=O)(=O)N[C@H]2CCOC2=O)cc1 [Compound 6, (S)-N-(4-(N-(2-oxotetrahydrofuran-3-yl)sulfamoyl)phenyl)octanamide] | 146 to 148 °C | − |  |  |
| O=C(Nc1ccc(S(=O)(=O)N[C@H]2CCOC2=O)cc1)c1ccccc1 [Compound 9, (S)-N-(4-(N-(2-oxotetrahydrofuran-3-yl)sulfamoyl)phenyl)benzamide] |  | − | 17.2 ± 2.6 µM |  |
| O=C(Nc1ccc(S(=O)(=O)N[C@H]2CCOC2=O)cc1)c1ccc(Br)cc1 [Compound 12, (S)-4-bromo-N-(4-(N-(2-oxotetrahydrofuran-3-yl)sulfamoyl)phenyl)benzamide] | 112 to 113 °C | ± |  | both an agonizing effect and an inhibitory effect |
| O=C(Nc1ccc(S(=O)(=O)N[C@H]2CCOC2=O)cc1)c1ccc(Cl)cc1 [Compound 14, (S)-4-chloro-N-(4-(N-(2-oxotetrahydrofuran-3-yl)sulfamoyl)phenyl)benzamide] |  | − |  |  |
| O=C(Nc1ccc(S(=O)(=O)N[C@H]2CCOC2=O)cc1)c1ccc(CCl)cc1 [Compound 15, (S)-4-(chloromethyl)-N-(4-(N-(2-oxotetrahydrofuran-3-yl)sulfamoyl)phenyl)benzamide] | 251 to 253 °C | + |  | agonizing effect |
| CC(C)(C)c1ccc(C(=O)Nc2ccc(S(=O)(=O)N[C@H]3CCOC3=O)cc2)cc1 [Compound 16, (S)-4-(tert-butyl)-N-(4-(N-(2-oxotetrahydrofuran-3-yl)sulfamoyl)phenyl)benzamide] | 207 to 208 °C | − |  |  |
| O=C(Nc1ccc(S(=O)(=O)N[C@H]2CCOC2=O)cc1)c1ccc(F)cc1 [Compound 17, (S)-4-fluoro-N-(4-(N-(2-oxotetrahydrofuran-3-yl)sulfamoyl)phenyl)benzamide] | 236 to 237 °C | − | 14.7 ± 2.58 µM |  |
| Cc1cccc(C(=O)Nc2ccc(S(=O)(=O)N[C@H]3CCOC3=O)cc2)c1 [Compound 20, (S)-3-methyl-N-(4-(N-(2-oxotetrahydrofuran-3-yl)sulfamoyl)phenyl)benzamide] | 193 to 194 °C | − |  |  |
| O=C(Nc1ccc(S(=O)(=O)N[C@H]2CCOC2=O)cc1)c1cccc(Cl)c1 [Compound 22, (S)-3-chloro-N-(4-(N-(2-oxotetrahydrofuran-3-yl)sulfamoyl)phenyl)benzamide] | 213 to 214 °C | − |  |  |
| O=C(Nc1ccc(S(=O)(=O)N[C@H]2CCOC2=O)cc1)c1cccc(F)c1 [Compound 23, (S)-3-fluoro-N-(4-(N-(2-oxotetrahydrofuran-3-yl)sulfamoyl)phenyl)benzamide] |  | − | 7.79 ± 2.68 µM |  |
| O=C(Nc1ccc(S(=O)(=O)N[C@H]2CCOC2=O)cc1)c1ccccc1F [Compound 24, (S)-2-fluoro-N-(4-(N-(2-oxotetrahydrofuran-3-yl)sulfamoyl)phenyl)benzamide] |  | − | 1.64 ± 0.27 µM |  |
| O=C(Nc1ccc(S(=O)(=O)N[C@H]2CCOC2=O)cc1)c1ccccc1C(F)(F)F [Compound 27, (S)-2-trifluoromethyl-N-(4-(N-(2-oxotetrahydrofuran-3-yl)sulfamoyl)phenyl)benzamide] | 186 to 187 °C | − | 4.91 ± 0.97 µM |  |
| O=C(Nc1ccc(S(=O)(=O)N[C@H]2CCOC2=O)cc1)c1ccccc1Cl [Compound 28, (S)-2-chloro-N-(4-(N-(2-oxotetrahydrofuran-3-yl)sulfamoyl)phenyl)benzamide] |  | − | 1.66 ± 0.33 µM |  |
| Br.NC1CCOC1=O (stereo not drawn) [Intermediate 1, (L)-homoserine lactone hydrobromide] |  | + |  |  |
| CC(=O)Nc1ccc(S(=O)(=O)N[C@H]2CCOC2=O)cc1 [Intermediate 2, (S)-N-(4-(N-(2-oxotetrahydrofuran-3-yl)sulfamoyl)phenyl)acetamide] |  | − |  |  |
